We go through four compounds from patent US20220362177A1, “CERAMIDE RATIOS AS PREDICTIVE AND THERAPEUTIC BIOMARKERS FOR LEUKEMIAS” (University of Virginia Patent Foundation, priority 2019, published 2022).

In one test the test system is C1498 AML cells. Description: Syngeneic C1498-luc AML model in C57BL/6J mice. The format is in vivo, mouse. As for the experimental part: FIG. 8C: Survival of C1498-bearing C57BL/6J mice were treated with either Control (Lip-Ghost), CNL (31.2 mg/kg), Cytarabine (75 mg/kg) or CNL+Cytarabine.
We initially utilized the immune-compromised NRG mice engrafted with MOLM-13 cells expressing luciferase. Mice were engrafted, treated with the various drug combinations, and disease burden measured by live animal luminescence and Kaplan-Meier curve. […] C1498 cells are a de novo AML cell line from a C57-blkJ mouse. […] Given this, no Venetoclax groups were included. C57-blkJ mice were injected with C1498 AML cells transduced to express luciferase.

In the next test the test system is Mcl-1. Description: Western blot of treated MOLM-14 cells. The format is cell-based. Particulars: MOLM-14, 24 hours. (Immunoblotting shows a protein as a band on a membrane.)
Another test deals with XIAP. Description: Western blot of treated MOLM-14 cells. The format is cell-based. Particulars: MOLM-14, 24 hours. The procedure: (§1) FIGS. 7A-7I. CAV treatment alters expression of genes involved in cell survival relevant to AraC and Venetoclax resistance mechanism. MOLM-14 cells were treated with the listed conditions for 24 hours and protein harvested. Western blots were performed and quantitated via densitometry. Representative blots are shown in FIG. 7A and quantification in FIGS. 7B-7I. *: significant to Vehicle.
(§2) Western blotting: Whole cell lysates were prepared by dissolving cells in FOCUS™ Extraction Buffer III (G-Biosciences, St. Louis, Mo., United States of America; Catalog No. 786-222) containing protease inhibitors (Thermo Fisher Scientific Catalog No. A32955) for 10-15 minutes on ice with occasional shaking. After centrifugation for 15 minutes at 13-14000×g at 10° C. supernatants were mixed with one-third of a volume of NUPAGE™ LDS 4× Sample Buffer (Thermo Fisher Scientific) containing 5% 2-mercaptoethanol. Protein samples were prepared by heating at 37° C. for 10 min after the addition of denaturing sample buffer. Proteins were separated using SDS-PAGE on a 4-12% gel (Thermo Fisher Scientific) and transferred to Immobilon membrane (Bio-Rad). […]

Another test concerns Survivin. Description: Western blot of treated MOLM-14 cells. It counts as cell-based. The following applies: MOLM-14, 24 hours, independently. The procedure: as §1, §2
The subject of the next test is ceramide levels. Kind of test: Lipidomics (LC/MS) of ceramide levels in treated cells. The following applies: 24 hrs. The format is cell-based. An excerpt: Lipidomics: Lipids were extracted from cell lysates and analyzed on an Acquity I-Class/Xevo TQ-S Micro IVD System (Waters Corporation, Milford, Mass., United States of America) as described previously (Pearson et al. (2020) Ceramide Analogue SACLAC Modulates Sphingolipid Levels and MCL-1 Splicing to Induce Apoptosis in Acute Myeloid Leukemia. Mol Cancer Res 18(3):352-363). Mass spectrometry peaks were compared to internal standards, and all data are represented as picomoles of lipid per milligram of protein.
To determine potential metabolic mechanism underlying the efficacy of combinatorial CNL/AraC/Venetoclax (CAV) treatment, lipids were harvested to measure the effect of Venetoclax and AraC upon CNL metabolism by LC/MS. Cells were treated individually or in combination with CNL, Ara-C, and/or Venetoclax for 24 hrs. […] This lead to an increase in the C16/C24 ratio, which might support a pro-mitogenic response (FIG. 6H).

A further test deals with MOLM-14. Description: MTS cell viability assay. The format is cell-based. Particulars: MOLM-14, ceramides for 24 hours, with CNL. As for the experimental part:
FIG. 4. Ceramide chain length altered biological and biophysical responses. MOLM-14 cells were treated with the indicated ceramides for 24 hours and viability was assessed by MTS.
MTS Cell Viability Assay: Cytotoxicity of nanoliposomal ceramide in AML cells was measured by plating 15,000 cells/well into 96-well plates followed by growth for 24 hours in a humidified 37° C. cell culture incubator in the presence of ghost liposomes, CNL or other drugs for 24 hours in 10% serum medium. After 24 h, MTS/PMS mixture was added and adsorption was read at 560 nm using Bio-Tek plate reader.
Cell viability MTS assays were performed in three AML cells lines: OCI-AML2, KG-1, AND MOLM-14 to determine their sensitivities to co-treatment with CNL, Ara-C, and Venetoclax. Table 1 summarized these cell lines, their sources, and the known driver mutations that are present in the cell lines. The cells lines were treated with concentrations that had been determined to be less than the EC50 so any synergistic or additive effects could be observed.
Background: Tetrazolium assays rely on reduction of a dye to a coloured formazan, in cell work by metabolically active cells.

The next test relates to AML cells. The following applies: recent studies by others; cited from earlier work.

Procedure for Mcl-1: After centrifugation for 15 minutes at 13-14000×g at 10° C. supernatants were mixed with one-third of a volume of NUPAGE™ LDS 4× Sample Buffer (Thermo Fisher Scientific) containing 5% 2-mercaptoethanol. Protein samples were prepared by heating at 37° C. for 10 min after the addition of denaturing sample buffer. […] Primary and secondary antibodies were to diluted in 0.05% TBS/Tween-20 containing 0.05% Casein Blocker. Protein bands were visualized using a commercially available chemiluminescence kit (Thermo Fisher Scientific) or by infrared laser scanner using ChemiXX6 G:box imager (Syngene, Frederick, Md., United States of America).

As to `Nc1ccn([C@@H]2O[C@H](CO)[C@@H](O)[C@@H]2O)c(=O)n1` [AraC, cytarabine], the median survival time in the test on C1498 AML cells (C1498-bearing C57BL/6J mice, CNL 31.2 mg/kg, Cytarabine 75 mg/kg, treated 7 days) is 41 days. In the test on C1498 AML cells (C1498 model, single agent), the “survival” value is given as “moderate increase in survival”. In addition, in the test on Mcl-1, the Mcl-1 expression result was “not”. The XIAP expression result with XIAP is “not”. For the same compound, the Survivin expression levels entry in the test with Survivin was “increased expression levels”. Moreover, the ceramide levels entry in the test on ceramide levels (single agent) is listed as “significantly elevated”; in the test on ceramide levels (with co-treatment of CNL), “raise ceramide levels”.
Consider `CCCCCCCCCCCCC/C=C/[C@@H](O)[C@H](CO)NC(=O)CCCCCCCCCCCCCCC` [C16 ceramide], for which, in the test with MOLM-14, the “potentiation of CNL-induced cell death” value was “potentiated”.
Consider `CCCCCCCCCCCCC/C=C/[C@@H](O)[C@H](CO)NC(=O)CCCCCCCCCCCCCCCCCCCCCCC` [C24 ceramide], for which the “potentiation of CNL-induced cell death” value in the test with MOLM-14 is on record as “not”.
On to `CCCCCCCCc1ccc(CCC(N)(CO)CO)cc1` [FTY720], for which the “apoptosis / death of AML cells” value in the test with AML cells was “rapidly induced ceramide-mediated apoptosis”.
